The subject of data set [1] is viral amplicon plant cell cultures. The settings on record: cited from earlier work.
Data set [2] deals with CMViva inducible cell cultures. The data set is described as follows: Effect of inducer concentration on rAAT production, CMViva inducible cell cultures. The format is cell-based, Nicotiana benthamiana. The method, then:
(§1) The inducer, 17-beta-estradiol, dissolved in DMSO, was added to cultures of XVE and CMViva transgenic cell lines at a specific time after inoculation to start induction. The final concentration of DMSO was not higher than 0.3%.
(§2) For inducible systems, the correct inducer concentration and timing of application are critical to maximize recombinant protein expression. Two inducible expression systems were evaluated for rAAT protein production. The concentration of inducer (COI) required for inducing maximum rAAT production and the close-response of inducible plant cell cultures were determined. Inducer was added to the XVE and CMViva cell suspensions 10 days after inoculation (100 mL cell culture in a 250 mL Erlenmeyer flask, 140 rpm and 25° C. under ambient light) to a final concentration of 0, 0.1, 0.5, 1, 2.5, 5, 10, 25, 50 or 100 μM. Samples were harvested 8 days after induction and total and functional extracellular rAAT were determined by ELISA (FIG. 8). In the absence of inducer, rAAT was not detected in XVE or CMViva cultures. There was a dose-dependent response in rAAT expression in XVE and CMViva cell cultures with added inducer, and both inducible systems allowed regulation of rAAT expression at inducer concentrations between 0.1 and 10 μM. Above approximately 10 μM estradiol, rAAT production leveled off in both XVE and CMViva systems. The CMViva system first responded at 0.1 μM while XVE required 2.5 μM. Higher extracellular rAAT productivity was produced in CMViva at a relatively low inducer concentration (0.5 μM) compared with that in XVE system (5 μM) and CMViva produced more functional rAAT at all inducer concentrations.

In the next data set the test system is N. benthamiana cultures. The data set is described as follows: Effects of estradiol on N. benthamiana cultures (toxicity, growth). The following applies: at up to 100 μM. The format is cell-based, Nicotiana benthamiana. Here is the method: as §2, with “Higher extracellular rAAT productivity was produced in CMViva at a relatively low inducer concentration (0.5 μM) compared with that in XVE system (5 μM) and CMViva produced more functional rAAT at all inducer concentrations.” left out

Data set [3] deals with XVE inducible cell cultures. The data set is described as follows: Effect of inducer concentration on rAAT production, XVE inducible cell cultures. The format is cell-based, Nicotiana benthamiana. The method, then:
as §1
as §2, with “The CMViva system first responded at 0.1 μM while XVE required 2.5 μM. Higher extracellular rAAT productivity was produced in CMViva at a relatively low inducer concentration (0.5 μM) compared with that in XVE system (5 μM) and CMViva produced more functional rAAT at all inducer concentrations.” left out

A further data set has as its system XVE system. The following applies: cited from earlier work.
[4] abbreviates: inducer added 10 days after inoculation, sampled 8 days after induction.

As for `C[C@]12CC[C@@H]3c4ccc(O)cc4CC[C@H]3[C@@H]1CC[C@@H]2O` [estradiol, 17-β-estradiol], in data set [1] (viral amplicon plant cell cultures), the “estradiol concentration giving GFP fluorescence” value is given as 10 nM. The “estradiol concentration at saturation of GFP fluorescence” value in data set [1] (viral amplicon system in plant cell culture) was 0.1 to 1 µM. Moreover, the “inducer concentration giving higher extracellular rAAT productivity” value was determined as 0.5 µM in data set [2] (flask cultures) and 5 µM in data set [3] (flask cultures). Further, the results for the “estradiol concentration at which the system first responded (detectable rAAT)” value in data set [2] (setting [4]) and in data set [3] (setting [4]) were 0.1 µM and 2.5 µM, respectively. In data set [2] (lowest concentration tested), the “lowest estradiol concentration with detectable rAAT expression” value is 100 nM. Also, the “detrimental, toxic or growth-inhibiting effects on cultures” value with N. benthamiana cultures is reported as “no obvious detrimental, toxic, or growth-inhibiting effects”. Moreover, the “estradiol concentration giving detectable GFP transcripts” value with XVE system (plants, XVE system) was 8 nM. Besides, the “estradiol concentration at saturation of GFP transcripts” value in the data set on XVE system (whole plants) was “around 5 μM”.

Source of the values: US10421973B2, “Chemically inducible cucumber mosaic virus protein expression system” (THE REGENTS OF THE UNIVERSITY OF CALIFORNIA, priority 2006, dated 2019).
